# Laboratory results from PubChem BioAssay AID1117319 (Southern Research Institute, 2015).
# Results filed as inconclusive are left out.
# Biological target: Virion infectivity factor (Human immunodeficiency virus type 1 group M subtype B (isolate BH10)) + Virion infectivity factor (Human immunodeficiency virus type 1 group M subtype B (isolate BRU/LAI)) + Virion infectivity factor (Human immunodeficiency virus type 1 group M subtype B (isolate PCV12)) + Virion infectivity factor (Human immunodeficiency virus type 1 group M subtype B (isolate HXB2)) + DNA dC->dU-editing enzyme APOBEC-3G (Homo sapiens) (UniProt P69720+P69721+P69722+P69723+Q9HC16)
# Experiment: HIV-1 Vif–A3G interaction blockers – biochemical, TR-FRET, GST-Vif 1-94, biotin-A3G peptide, dose response retest, primary screen (AID 1117319);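 note: Vif residues 1-94 fused to GST binding biotinylated APOBEC3G peptide 110-148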
# Details: TR-FRET GST-Vif / biotin-A3G peptide binding
row,SMILES,IC50 [µM]
1,O=S(=O)(O)c1cc(Cl)cc(N=Nc2ccc(O)cc2O)c1O,49.4
2,Cc1cc(C)c([N+](=O)[O-])cc1-c1ccc(/C=N/c2c(-c3ccco3)nc3ccccn23)o1,42.4
3,NS(=O)(=O)c1ccc(CCNC(=O)CCS(=O)(=O)c2ccc(Br)cc2)cc1,25
4,Cc1ccc[n+](-c2[nH]c(=O)sc2/C=N/NC(=O)c2ccccc2[O-])c1,51.4
5,CCOC(=O)c1ccc(NS(=O)(=O)c2ccc3oc(=O)[nH]c3c2)cc1,88.2
6,C(=C\c1ccco1)/C=N/n1cnnc1,1.35
7,CCCn1nc(C(=O)Nc2cc(C(=O)OC)ccc2C)c2ccccc2c1=O,86.5
8,CC1=CC(=Nc2c(C)n(C)n(-c3ccccc3)c2=O)C=CC1=O,5.02
9,N#C/C(=C/c1ccc(N2CCCCCC2)o1)c1cccc(F)c1,24.6
10,CC(Cc1c[nH]c2ccccc12)C(=O)NCc1ccco1 (stereo not drawn),33
11,O=C(CC1C(=O)NCCN1Cc1ccc(F)cc1)NCCN1CCCc2ccccc21 (stereo not drawn),97.4
12,CCCCN1C2CCCC1CC(NC(=O)c1ccc(OC)c(OC)c1)C2 (stereo not drawn),19.1
13,Cc1cccc(N/N=C/c2ccc(O)c(O)c2O)c1,9.51
14,COc1ccc2c(c1)O[C@@H](c1ccc3c(c1)OCO3)[C@H](OC(=O)Nc1cc(OC)c(OC)c(OC)c1)C2=O,66.6
15,C=CCSc1nnc(NC(=O)CSc2nnc(C)s2)s1,90.6
16,Cc1ccc(C)c(/C(O)=C2/C(=O)C(=O)N(CCN3CCOCC3)C2c2ccco2)c1 (stereo not drawn),18.1
17,O=C1C(Cl)=C(N2CCCCC2)C(=O)C(Cl)=C1c1cnc(N2CCCCC2)s1,4.21
18,COc1ccc(NC(=O)N2c3ccc(OC)cc3C(C)=CC2(C)C)cc1,3.27
19,O=C1NC(=S)S/C1=C\C=C\c1ccc([N+](=O)[O-])o1,1.84
20,O=C(O)c1ccc2c(c1)[C@@H]1C=CC[C@@H]1[C@H](c1ccccn1)N2,1.05
21,CCOc1cccc(=O)c2c(C)oc(C)c12,6.16
22,Oc1ccc(/C=N/NC2=NCCCCC2)c(O)c1,4.9
23,CC1OC(CC(=O)O)CC2=C1C(=O)c1c(O)cccc1C2=O (stereo not drawn),4.16

row,SMILES,IC50 [µM]
1,COC(=O)Cn1c(CCC(=O)O)ccc1-c1ccccc1,12.5
2,CCCC(=O)Nc1ccc(Br)cn1,65.1
3,CCC(c1ccc(O)c(O)c1)C(CC)c1ccc(O)c(O)c1 (stereo not drawn),6.46
4,COC(=O)CCCC(=O)Nc1c(F)c(F)c(F)c(F)c1F,24.3
5,Cc1c2ccccc2nc2c(F)c(N(C)C)c(F)c(F)c12,15.7
6,Cc1cc(C(F)(F)F)n2nc(C(=O)O)c(Cl)c2n1,79.9
7,O=C1C2C3CCCC3=C3CCCC3C2C(=O)N1c1ccccc1 (stereo not drawn),3.44
8,CC(=C\c1ccco1)/C=C1/SC(=S)N(CC(=O)O)C1=O,14.7
9,O=C(NNC(=O)c1ccccc1O)c1cc2ccccc2o1,16.5
10,CC(C)CNC1=CC(=O)CC(c2ccco2)C1 (stereo not drawn),3.75
11,CCOC(=O)COc1nc(-c2ccco2)cc(-c2ccco2)c1C#N,5.83
12,O=C(NCCc1c[nH]c2ccccc12)c1ccc(S(=O)(=O)NCc2ccco2)cc1,33.3
13,CC1(C)CC(=O)C2=C(C1)NCN(Cc1ccc3c(c1)OCO3)C2,91.6
14,O=C(c1coc(=O)c(Br)c1)N1CCCc2ccccc21,24.3
15,CC(=O)NN1C(=O)/C(=C/c2ccc(Br)o2)SC1=S,11.7
16,Cc1ccc(NC(=O)c2cc(-c3ccc(C)o3)nc3ccccc23)nc1,33.6
17,Cn1nnnc1SCC(=O)NCc1ccco1,42.8
18,Cc1ccc(S(=O)(=O)Cn2nnnc2C(CC(C)C)N2CCN(C)CC2)cc1 (stereo not drawn),9.85
19,Nc1ccccc1NC1=CC(=O)CC(c2ccco2)C1 (stereo not drawn),49.4
20,Cc1cc(/C=C2\C(=O)NC(=O)N(Cc3ccco3)C2=O)c(C)n1-c1ccc(O)cc1,5.88
21,O=C(NC1CCCC1)c1ccc2nc(-c3ccco3)c(-c3ccco3)nc2c1,0.3
22,N#Cc1ccccc1CN1C(=O)S/C(=C/c2cccn2-c2ccc(C(=O)O)cc2)C1=O,19.8
23,CC1=CN2C(=N)/C(=C/c3ccc([N+](=O)[O-])o3)C(=O)N=C2S1,2.91

row,SMILES,IC50 [µM]
1,CN(C)c1cc(Cl)c2nonc2c1N,11.9
2,O=C(O)Cc1ccc(N=Nc2c(O)c(C(=O)O)cc3ccccc23)cc1,10.5
3,COc1ccc2cc(C3C(C#N)=C(N)OC(C)=C3C(C)=O)c(Cl)nc2c1 (stereo not drawn),19.4
4,Cc1c(NC(=O)CN2CCN(c3ccc(O)cc3)CC2)c(=O)n(-c2ccccc2)n1C,10.2
5,O=C(COC(=O)/C=C/c1ccco1)Nc1ncc(C(F)(F)F)cc1Cl,12.7
6,Cc1cc(C)cc(NC(=O)CSc2nc3c(c(=O)n2C)SC(C)C3)c1 (stereo not drawn),21.8
7,Cc1ccc(N(CN2C(=O)C3CC=CCC3C2=O)C(=O)c2ccco2)cc1Cl (stereo not drawn),53.4
8,Cc1ccc(S(=O)(=O)OCC(=O)Nc2ccc(C(=O)O)c(O)c2)cc1,64.1
9,CCN(CC)c1ccc(N=Cc2c(O)n(CCc3ccc(OC)c(OC)c3)c(=O)[nH]c2=O)cc1,44.1
10,COc1cc(C(=O)NNC(=S)NCc2ccco2)cc(OC)c1OC,63.5
11,O=C1N=C(N2CCOCC2)SC1=Cc1ccco1,92.5
12,CC1=C/C(=N\OS(=O)(=O)c2ccccc2)C=CC1=O,16.7
13,Cc1nc2c(=O)[nH]c(=S)[nH]c2[nH]c1=O,50.7
14,CC(N=Cc1cccc(O)c1O)c1ccccc1 (stereo not drawn),2.61
15,CCn1c(COc2ccc3c(c2)OCO3)nnc1SCC(=O)c1ccc(Cl)cc1,78.1
16,N/C(=N\N=C/c1ccc(-c2ccc(O)c(C(=O)O)c2)o1)N[N+](=O)[O-],15.2
17,O=C(N/N=C/C(Br)=C/c1ccccc1)c1cc(-c2ccco2)[nH]n1,5.12
18,COc1ccccc1-n1c(-c2cc(-c3ccco3)[nH]n2)n[nH]c1=S,3.11
19,O=C(O)C1Nc2c(O)cccc2C2C=CCC12 (stereo not drawn),0.25
20,COc1ccc(NC2CS(=O)(=O)CC2NCc2ccco2)cc1 (stereo not drawn),62.7
21,CC1CCCN(Cc2c(O)ccc3c2O/C(=C\c2ccco2)C3=O)C1 (stereo not drawn),2.89
22,CCN1CCN(C2=NC(=O)/C(=C/c3ccc(C)o3)S2)CC1,3.48
23,O=C(O)CC(Cn1cnnn1)c1ccccc1 (stereo not drawn),58.8

row,SMILES,IC50 [µM]
1,Clc1ccc(/C=N/c2c(-c3ccco3)nc3ccccn23)cc1,14.1
2,O=C(CN1CCN(S(=O)(=O)c2ccc(Cl)s2)CC1)NCc1ccc(Cl)cc1,7.67
3,Cc1noc(/C=C/c2ccco2)c1S(=O)(=O)N1CCC(C(=O)NCc2ccco2)CC1,1.84
4,O=S(=O)(O)c1cc(O)c2cc(Nc3ccccc3)ccc2c1,2.3
5,O=C(O)c1ccc(-n2cccc2/C=N\NC(=O)c2cc3cc(Br)ccc3o2)cc1,6.47
6,C/C(N)=C(/C#N)C(=O)CSc1nnc(NC(C)C)s1,9.7
7,O=C(Nc1ccccc1)C1=C(O)CC(c2ccco2)CC1=Nc1ccccc1 (stereo not drawn),15.1
8,CC(=O)c1ccc2c(c1)C1C=CCC1C(C(=O)O)N2 (stereo not drawn),0.6
9,CCN=c1scc(C)n1/N=C/c1ccc(O)c(O)c1O,2.47
10,O=C1NC(=O)N(Cc2ccco2)C(=O)/C1=C/C=C/c1ccco1,0.91
11,CC1=CC2(O)OCCN(CCO)C2=CC1=O (stereo not drawn),7.05
12,Cc1cccc(NC(=O)CSc2nnc(-c3ccco3)c(-c3ccco3)n2)c1C,4.3
13,O=C(Nc1nc(-c2ccco2)c(-c2ccco2)s1)c1ccco1,32.2
14,Cc1onc(-c2c(F)cccc2Cl)c1C(=O)Nc1nnc(C2CC2)s1,10.7
15,O=C1/C(=C\c2ccco2)NC(=S)N1c1ccccc1,16.4
16,CN(Cc1cnc2nc(N)nc(N)c2n1)c1ccc(C(=O)NC(CCC(=O)O)C(=O)O)cc1 (stereo not drawn),49.2
17,O=C(COc1ccc(S(=O)(=O)N2CCCC2)cc1)NCCC1=CCCCC1,75.1
18,O=C(CSc1nc2ccccc2n1CCc1ccccc1)c1ccc(O)c(O)c1,2.14
19,O=[N+]([O-])c1ccccc1NC(=S)N/N=C/c1ccc(O)c(O)c1,4.06
20,O=C(O)C1Nc2c(O)cc(Cl)c([N+](=O)[O-])c2C2C=CCC12 (stereo not drawn),0.23
21,CCN1/C(=C/C=C/C=C/C=C/c2sc3ccccc3[n+]2CC)Sc2ccccc21,4.33
22,Nc1cc(N)c(OCC(F)(F)F)cc1OCC(F)(F)F,9.47
23,CN(C)c1ccc(Cc2cc3c(O)ccc(O)c3cc(Cc3ccc(N(C)C)cc3)c2=O)cc1,0.87

row,SMILES,IC50 [µM]
1,COC(=O)COc1ccc(S(=O)(=O)Nc2cc(OC)ccc2OC)cc1,5.05
2,O=c1oc2c3c4c(cc2s1)CCCN4CCC3,9.54
3,COC(=O)c1ccccc1NC(=O)CCS(=O)(=O)c1ccc(Br)cc1,1.49
4,COc1ccc(N2CCN(C(=O)c3c(-c4ccccc4)noc3C)CC2)cc1,31.1
5,CCCC(=O)N(CCc1ccc(OC)cc1)Cc1nc2ccccc2c(=O)[nH]1,14.4
6,O=C1NC(=O)C(=Cc2ccc(SC3CCCCC3)o2)C(=O)N1,29
7,O=C1CCCC(O)=C1N=Nc1cccc(C(=O)O)c1,5.61
8,Cc1cc(C)c(S(=O)(=O)NCC2CCC(C(=O)N3CCC4(CC3)OCCO4)CC2)c(C)c1 (stereo not drawn),39.6
9,O=C(Nc1cc(Cl)cc(Cl)c1)c1coc(=O)c(Br)c1,19.1
10,CC(C)(C)C(=O)OCc1nc(-c2ccc(O)c(O)c2)cs1,17.1
11,c1cnc(N2CCN(c3cnccn3)CC2)nc1,14.3
12,COc1ccc(NC(=S)NCCc2ccccc2OC)c(OC)c1,7.02
13,Cc1cc(S(=O)(=O)N(Cc2ccccn2)Cc2ccco2)ccc1-n1cnnn1,83.6
14,COc1ccc(OC)c(C2C(C(=O)Nc3ccc(F)cc3)=C(C)Nc3nc(CCCO)nn32)c1 (stereo not drawn),54.6
15,CCOc1cccc(=O)c2c(C)n(CC(=O)c3ccccc3)c(C)c12,8.28
16,CCc1ccc(NC(=O)CCNS(=O)(=O)c2cccc3nonc23)cc1,53
17,Cc1cccc(-n2c(N)cc(=O)nc2SCC(=O)NC2CCCCC2)c1,93.7
18,Cc1ccccc1NS(=O)(=O)c1ccc2[nH]cc(C(=O)N(C)Cc3ccco3)c(=O)c2c1,56.8
19,C=CCN1CCc2cccc3c2[C@H]1Cc1ccc(O)c(O)c1-3,14.8
20,O=C1NC(=Nc2ccc(O)cc2)S/C1=C\C=C\c1ccco1,5.1
21,CCCOc1ccc(Cc2nn3c(=O)/c(=C/c4ccco4)sc3nc2=O)cc1,1.5
